In US20260176252A1, “IONIZABLE LIPIDS WITH BRANCHED HEAD GROUPS” (Beam Therapeutics Inc., priority 2023, published 2026):

Assays:
[1] = pKa of LNP preparations via TNS assay; type: physicochemical; conditions: Table D; LNP formulation ratio 47.5:40:2.5:10
Description: (§1) LNP preparations are formed by microfluidic mixing of the lipid and NA solutions using a Precision Nanosystems NanoAssemblr Ignite Instrument, according to the manufacturer's protocol. A 3:1 ratio of aqueous to organic solvent is maintained during mixing using differential flow rates. After mixing, LNP preparations are collected, diluted in PBS (approximately 2:1 v/v), and further buffer exchange is conducted using dialysis in PBS at 4° C. for 8 to 24 hours against a 20 kDa filter. After this initial dialysis, each individual LNP preparation is characterized via dynamic light scattering (DLS) to measure size and polydispersity. pKa of a subpopulation of LNP preparations is measured via TNS assay. After dialysis, LNP preparations are sterile filtered using 0.22 micron sterile filter and stored at 4° C. for further use. In some embodiments, LNP preparations may be concentrated using 100 kDa Amicon filters per manufacturer's protocol.

[2] = Dynamic light scattering (DLS) of LNP preparations: size (diameter) and polydispersity; type: physicochemical; conditions: for AVG PDI / AVG Z Dia (nm): Table A, LNP 47.5% Ionizable Lipid:40% cholesterol:2.5% PEG-2000 DMG:10% DPSC, N/P 4.5-6
Description: A ratio of aqueous to organic solvent of approximately 2:1 or 3:1 was maintained during mixing using differential flow rates. After mixing, LNP preparations were collected, diluted in phosphate buffer saline (PBS) or Tris-buffered saline (TBS) (approximately 1:1 v/v). Further buffer exchange was conducted using dialysis in PBS or TBS at 4° C. for 4 to 24 hours against a 20 kDa filter. After this initial dialysis, each individual LNP preparation may be characterized via dynamic light scattering (DLS) to measure the size (e.g., diameter) and polydispersity. LNP preparations falling within specific diameter and polydispersity ranges were pooled, and further dialyzed against PBS or TBS at 4° C. for 1 to 4 hours against a 100 kDa dialysis cassette. After the second dialysis, LNP preparations were sterile filtered using 0.22 μm filter and stored at 4° C. for further use.
as §1
DLS-LNP preparation hydrodynamic diameter and polydispersity index (PDI) is measured using high throughput dynamic light scattering (DLS) (DynaPro plate reader II, Wyatt). LNP preparations are diluted 1×PBS to an appropriate concentration and analyzed.

[3] = Encapsulation efficiency of LNP preparations (unlysed and lysed LNPs); type: physicochemical; conditions: for AVG EE(%): Table A, LNP 47.5% Ionizable Lipid:40% cholesterol:2.5% PEG-2000 DMG:10% DPSC, N/P 4.5-6, NA cargo with barcode
Description: Concentration of NA is determined by Qubit microRNA kit (for siRNA) or HS RNA kit (for mRNA) per manufacturer's instructions. Encapsulation efficiency is determined by measuring unlysed and lysed LNPs.

ALAS1 target site = assay: In vivo base editing with LNP-delivered ABE mRNA and sgRNA targeting ALAS1; conditions: Balb/c mice, IV tail vein, 4 days after dosing; for Quadracept Editing A->G (%): ALAS1, Quadracept (muscle); for Liver Editing A->G (%): ALAS1, liver
Description: Exemplary LNP preparations are selected to determine each preparation's ability to perform base editing in a Balb/C mouse model as described herein.
Lipid nanoparticle components are dissolved in 100% ethanol at specified lipid component molar ratios. mRNA encoding an adenine base editor and a chemically-modified sgRNA is dissolved at a mass ratio of 1:1 in 10 mM citrate, 100 mM NaCl, pH 4.0, resulting in a concentration of NA cargo of approximately 0.22 mg/mL. LNP preparations are formulated with molar ratios of either 50% Ionizable Lipid:38.5% Cholesterol:1.5% PEG2000-DMG: 10% DSPC or 47.5% Ionizable Lipid:40% Cholesterol:2.5% PEG2000-DMG: 10% DSPC both at a total lipid to NA molar ratio of 6.
as §1
Male Balb/C mice aged approximately 8-12 weeks are used in the experiments described herein. Each mouse is temporarily restrained, and LNP preparations are administered IV via tail vein injection. Age-matched mice are also used to administer vehicle (1×PBS) via tail vein injection as a control. Four to six days post-dose, tissues including liver, spleen, heart and muscle are collected (only liver and muscle (quardracept) are reported). Genomic DNA is isolated and fragmented and adapter-ligated using the Nextera DNA Flex Library Prep Kit (Illumina) using the 96-well plate Nextera indexing primers (Illumina), according to the manufacturer's instructions. Library size and concentration is confirmed by Fragment Analyzer (Agilent) and sent to Novogene for whole genome sequencing using an Illumina HiSeq.
For base editing, mRNA encoding an adenine base editor (ABE) and a guide RNA (sgRNA) targeting ALAS1 at 1:1 (mass ratio) are coencapsulated in LNP preparations as described herein. LNP preparations are administrated into Balb/c mice through tail vein injections at concentrations ranging from 0.05 to 3.0 mg/kg total RNA. At 4 days after dosing, mice are euthanized and liver, spleen and bone barrow are harvested. Base editing is determined by performing targeted deep sequencing analysis at the ALAS1 target site using extracted genomic DNA.

[4] = Table D, LNP formulation ratio 47.5:40:2.5:10, ABE mRNA + PCSK9 sgRNA 1:1
[5] = Table C, LNP formulation ratio 47.5:40:2.5:10, ABE mRNA + ALAS1 sgRNA 1:1

Compound | pKa [1] | Diameter (nm) [2, 4] | EE (%) [3, 4] | Diameter (nm) [2, 5] | PDI (%) [2, 5] | EE (%) [3, 5] | other results
Bis(2-(pent-4-en-1-yl)hept-6-en-1-yl) O,O′-(2-(((4-(((2-(118yrrolidine-1-yl)ethyl)carbamoyl)oxy)decanoyl)oxy)methyl)propane-1,3-diyl) diadipate [Example 3] |  |  |  | 140.85 nm | 5.5% | 82.63% | 
CCCCCCC(CCC(=O)OCC(COC(=O)CCCCCC(=O)OC/C=C(\C)CCC=C(C)C)COC(=O)CCCCCC(=O)OC/C=C(\C)CCC=C(C)C)OC(=O)NCCN1CCCC1 (stereo not shown) [Example 7, 1-(2E)-3,7-dimethylocta-2,6-dien-1-yl 7-{3-[(7-{[(2E)-3,7-dimethylocta-2,6-dien-1-yl]oxy}-7-oxoheptanoyl)oxy]-2-({[4-({[2-(pyrrolidin-1-yl)ethyl]carbamoyl}oxy)decanoyl]oxy}methyl)propyl}heptanedioate] | 7.17 | 134.3 nm | 91.7% |  |  |  | 
C=CCCCCCC(CCCCCC=C)OC(=O)CCCCCC(=O)OCC(COC(=O)CCCCCC(=O)OC(CCCCCC=C)CCCCCC=C)COC(=O)CCC(CCCCC)OC(=O)NCCN1CCCC1 (stereo not shown) [Example 2, 7,7′-di(pentadeca-1,14-dien-8-yl) O′1,O1-(2-(((4-(((2-(pyrrolidin-1-yl)ethyl)carbamoyl)oxy)nonanoyl)oxy)methyl)propane-1,3-diyl) di(heptanedioate)] |  |  |  | 64.4 nm | 8.2% | 95.75% | Quadracept Editing A->G (%) (ALAS1 target site; Dose 1.5 MPK total RNA): 1.7%; Liver Editing A->G (%) (ALAS1 target site; Dose 1.5 MPK total RNA): 86.3%; AVG PDI [2]: 0.09; AVG Z Dia (nm) [2]: 78.76 nm; AVG EE(%) [3]: 90.7%
7,7′-bis(2-(pent-4-en-1-yl)hept-6-en-1-yl) O′1,O1-(2-(((4-(((2-(pyrrolidin-1-yl)ethyl)carbamoyl)oxy)decanoyl)oxy)methyl)propane-1,3-diyl) di(heptanedioate) [Example 4] |  |  |  | 124.45 nm | 10.6% | 87.2% | Liver Editing A->G (%) (ALAS1 target site; Dose 0.05 MPK total RNA): 1.59%
C=CCCCCCC(CCCCCC=C)COC(=O)CCCCC(=O)OCC(COC(=O)CCCCC(=O)OCC(CCCCCC=C)CCCCCC=C)COC(=O)CCC(CCCCCC)OC(=O)NCCN1CCCC1 (stereo not shown) [Example 5, bis(2-(hept-6-en-1-yl)non-8-en-1-yl) O,O′-(2-(((4-(((2-(pyrrolidin-1-yl)ethyl)carbamoyl)oxy)decanoyl)oxy)methyl)propane-1,3-diyl) diadipate] |  |  |  | 64.5 nm | 8.2% | 95.84% | Quadracept Editing A->G (%) (ALAS1 target site; Dose 1.5 MPK total RNA): 1.5%; Liver Editing A->G (%) (ALAS1 target site; Dose 1.5 MPK total RNA): 79.8%; AVG PDI [2]: 0.08; AVG Z Dia (nm) [2]: 79.74 nm; AVG EE(%) [3]: 93.9%
CC/C=C\CCCC(CCC/C=C\CC)OC(=O)CCCCCC(=O)OCC(COC(=O)CCCCCC(=O)OC(CCC/C=C\CC)CCC/C=C\CC)COC(=O)CCC(CCCCCC)OC(=O)NCCN1CCCC1 (stereo not shown) [Example 6, 7,7′-di((3Z,12Z)-pentadeca-3,12-dien-8-yl) O′1,O1-(2-(((4-(((2-(pyrrolidin-1-yl)ethyl)carbamoyl)oxy)decanoyl)oxy)methyl)propane-1,3-diyl) di(heptanedioate)] |  |  |  | 71 nm | 10.8% | 95.5% | Quadracept Editing A->G (%) (ALAS1 target site; Dose 1.5 MPK total RNA): 2.5%; Liver Editing A->G (%) (ALAS1 target site; Dose 1.5 MPK total RNA): 88.7%

Further lines, with some results ahead:

pKa [1] | Diameter (nm) [2, 4] | EE (%) [3, 4] | Diameter (nm) [2, 5] | PDI (%) [2, 5] | EE (%) [3, 5] | Compound | other results
6.74 | 110.35 nm | 94.3% |  |  |  | CCCCCCC(CCC(=O)OCC(COC(=O)CCCCCC(=O)OCCC(C)CCCC(C)C)COC(=O)CCCCCC(=O)OCCC(C)CCCC(C)C)OC(=O)NCCN1CCCC1 (stereo not shown) [Example 8, 1-(3,7-Dimethyloctyl)-7-[3-({7-[(3,7-dimethyloctyl)oxy]-7-oxoheptanoyl}oxy)-2-({[4-({[2-(pyrrolidin-1-yl)ethyl]carbamoyl}oxy)decanoyl]oxy}methyl)propyl]heptanedioate] | 
6.68 | 163 nm | 87.7% |  |  |  | C=C(C)C(CC=C(C)C)COC(=O)CCCCCC(=O)OCC(COC(=O)CCCCCC(=O)OCC(CC=C(C)C)C(=C)C)COC(=O)CCC(CCCCCC)OC(=O)NCCN1CCCC1 (stereo not shown) [Example 12, 1-[5-methyl-2-(prop-1-en-2-yl)hex-4-en-1-yl]-7-(2-{[(7-{[5-methyl-2-(prop-1-en-2-yl)hex-4-en-1-yl]oxy}-7-oxoheptanoyl)oxy]methyl}-3-{[4-({[2-(pyrrolidin-1-yl)ethyl]carbamoyl}oxy)decanoyl]oxy}propyl) heptanedioate] | 
6.814 | 135.28 nm | 99.1% |  |  |  | C=CC(C)(CCC=C(C)C)OC(=O)CCCCCC(=O)OCC(COC(=O)CCCCCC(=O)OC(C)(C=C)CCC=C(C)C)COC(=O)CCC(CCCCCC)OC(=O)NCCN1CCCC1 (stereo not shown) [Example 10, 1-(3,7-dimethylocta-1,6-dien-3-yl)-7-[3-({7-[(3,7-dimethylocta-1,6-dien-3-yl)oxy]-7-oxoheptanoyl}oxy)-2-({[4-({[2-(pyrrolidin-1-yl)ethyl]carbamoyl}oxy)decanoyl]oxy}methyl)propyl]heptanedioate] | 
6.85 | 148.65 nm | 85.3% |  |  |  | CCCCCCC(CCC(=O)OCC(COC(=O)CCCCCC(=O)OCCC(C)CCC=C(C)C)COC(=O)CCCCCC(=O)OCCC(C)CCC=C(C)C)OC(=O)NCCN1CCCC1 (stereo not shown) [Example 9, 1-(3,7-dimethyloct-6-en-1-yl) 7-[3-({7-[(3,7-dimethyloct-6-en-1-yl)oxy]-7-oxoheptanoyl}oxy)-2-({[4-({[2-(pyrrolidine-1-yl)ethyl]carbamoyl}oxy)decanoyl]oxy}methyl)propyl]heptanedioate] | 
6.85 | 152.05 nm | 90.5% |  |  |  | CCCCCCC(CCC(=O)OCC(COC(=O)CCCCCC(=O)OC/C=C(/C)CCC=C(C)C)COC(=O)CCCCCC(=O)OC/C=C(/C)CCC=C(C)C)OC(=O)NCCN1CCCC1 (stereo not shown) [Example 11, 1-(2Z)-3,7-dimethylocta-2,6-dien-1-yl-7-{3-[(7-{[(2Z)-3,7-dimethylocta-2,6-dien-1-yl]oxy}-7-oxoheptanoyl)oxy]-2-({[4-({[2-(pyrrolidin-1-yl)ethyl]carbamoyl}oxy)decanoyl]oxy}methyl)propyl}heptanedioate] | 
